Results reported in patent publication US20210015092A1, “STABILIZATION OF WHOLE BLOOD AT ROOM TEMPERATURE” (Roche Diagnostics Operations, Inc., priority 2014, published 2021).

Key:
[1] = test system: MDA-MB-468 cells; assay: Preservation of cellular proteins: anti-CK5/8 immunostaining of MDA-MB-468 cells spiked into blood; assay type: cell-based, human; conditions: EDTA blood, 48 hours at room temperature; Sivelestat 10 μg/ml, Pefabloc SC 1 mM, SkQ1 100 nM, Mito Q 100 nM, glutathione 3 mM; versus EDTA without additive
Method: Preservation of Cellular Proteins Suspended cells of MDA-MB-468, a human breast cancer cell line were spiked into blood samples obtained from healthy individuals to result in 100,000 spiked cells per ml blood. The samples were processed either immediately or after storage at room temperature for 48 hours.
Nucleated cells were enriched by erythrocytes lysis. […] After centrifugation at 200×g for 15 min, the supernatant was removed and the pellet was resuspended in 250 μl of lysis buffer. […] The cells were sedimented by centrifugation at 200×g for 15 min.
For each sample a volume of 50 μl of the cell suspension was spotted on a glass slide and air-dried. The slides were fixed in ice cold acetone for 10 min, washed with PBS twice and immersed in labeling mixture containing anti-cytokeratine K5/K8-FITC labeled antibody diluted 1:50 in PBS (cytokeratine=CK). After an incubation for 30 min in the dark the supernatant was removed. DAPI-containing mounting medium was added, the spots covered with cover slips and after a further incubation for 20 min analyzed on a Zeiss Axio Observer Microscope. The total number of nucleated cells and the CK 5/8 positive cells were analyzed with the Assay Builder Software from Zeiss.
MDA-MB-468 cells were spiked into blood samples obtained from healthy individuals to result in a concentration of 100,000 spiked cells/ml blood. The samples were processed either immediately or after storage at room temperature for 48 hours. […] Sample 3 was additionally supplemented with the mitochondria targeted antioxidant SS-31 (1 μM), sample 4 with glutathione (0.75 mM). Nucleated cells were enriched by erythrocytes lysis and processed as described in Example 1.

[2] = test system: MDA-MB-468 cells; assay: Quantification of RNA from MDA-MB-468 cells isolated after 72 h sample storage; assay type: cell-based, human; conditions: 72 hours at room temperature, GCK DNA as reference, two donors
Method: MDA-MB-468 cells were spiked into blood samples obtained from two healthy individuals at 14.4×10^6 cells/ml. From each donor four samples were prepared. […] Aliquots from these samples were processed immediately after set up, other aliquots were processed after storage at room temperature for 72 hours. MDA-MB-468 cells were isolated from blood by capturing with BreastSelectBeads from Adnagen Cat. No.: T1-508 with 1,000 μl aliquots of sample material according to the protocol recommended by the manufacturer.
The bead captured purified cells were resuspended in 1,000 μl PBS. With 200 μl aliquots RNA was isolated using the MagNA Pure LC DNA Isolation Kit—Large volume Cat No 03310515001 using the Program “DNA LV Blood_20_200” and an elution volume of 100 μl.
The RNA was transcribed into cDNA using Transcriptor First Strand cDNA Synthesis Kit Cat. No: 04897030001 in reactions of 70 μl volume, each reaction containing 12.5 μl of isolated nucleic acid. PCR was peformed with the with the LightCycler 480 Probes Master in a LightCycler 480 instrument in 20 μl reactions containing 5 μl of the cDNA samples. […]
To quantify the changes in expression level of the RNA target tested, the relative quantification method of Livak and Schmittgen was used (Livak K. J. and Schmittgen T. D., Methods 2001, 25(4) 402-408). […]

[3] = test system: MDA-MB-468 cells; assay: Isolation of viable cells after sample storage for 48 hours, Trypan blue exclusion; assay type: cell-based, human; conditions: 48 hours at room temperature, two donors
Method: MDA-MB-468 cells were spiked into blood samples obtained from healthy individuals to result in a final concentration of 300,000 spiked cells/ml blood. The samples were processed either immediately or after storage at room temperature for 48 hours.
Immediately after sample set up and 48 hours later nucleated cells were enriched by erythrocyte lysis. […] The cells were sedimented by centrifugation at 200×g for 15 min.
From these samples the MDA-MB-468 cells were isolated using CD326 (EpCAM) Microparticles from Miltenyi (Cat No 130-061-101), MS columns and the MACS separator system (Milteny Cat. Nos. 130-042-201, 130-042-102) making use of the protocol recommended by the manufacturer.
The enriched cells were suspended in 300 μl of RPMI medium.
The viability of the cells was tested with the Trypan blue exclusion method. 10 μl of each sample was mixed with 10 μl of Trypan blue (Sigma-Aldrich T8154). The number of MDA-MB-468 cells excluding the dye was counted in a Neubauer chamber. The yield of viable cells was calculated using the cell number spiked into the blood samples as 100%.

[4] = test system: MDA-MB-468 cells; conditions: blood stored 48 hours at room temperature; cell index for 101 hours
Method: MDA-MB-468 cells treated and isolated as described in Example 6 were seeded into the wells of an E-Plate 96-well device (Roche Applied Science, Cat. No. 06472451001, Roche Diagnostics GmbH Mannheim, Germany) for the Real-Time Cell Analyzer (RTCA) MP (xCELLigence system). 50 μl aliquots of cells were seeded into wells containing 50 μl of RPMI medium. Duplicates were used for analysis. The E-Plate was incubated over night at 37° C. in an incubator to allow attachment of MDA-MB-468 cells to the bottom of the E-Plate. In order to remove contaminating blood derived cells the medium was removed and cells attached to the culture plate were washed 3 times with PBS. 150 μl of fresh RPMI medium was added per well and the E-Plate transferred to the Real-Time Cell Analyzer. Cell index was measured once per hour for 101 hours.

SMILES | percentage of MDA-MB-468 cells detected by immunostaining with Anti-CK5/8 (FIG. 1) [1] | also measured
CC1=C(C)C(=O)C(CCCCCCCCCC[P+](c2ccccc2)(c2ccccc2)c2ccccc2)=CC1=O [SkQ1, 10-(6′-plastoquinonyl) decyltriphenylphosphonium] | Particular positive effects | 
O=C(O)CN(CCN(CC(=O)O)CC(=O)O)CC(=O)O [EDTA] |  | change of RNA levels of isolated MDA-MB-468 cells (FIG. 4) [2]: strong decline in RNA levels; cell viability after storage, in words [3]: negatively affected; cell growth in culture of cells isolated from stored blood (FIG. 5) [4]: not culturable anymore
N[C@@H](CCC(=O)N[C@@H](CS)C(=O)NCC(=O)O)C(=O)O [glutathione] | further positive effect | 
COC1=C(OC)C(=O)C(CCCCCCCCCC[P+](c2ccccc2)(c2ccccc2)c2ccccc2)=C(C)C1=O [MitoQ, (10-(2,5-dihydroxy-3,4-dimethoxy-6-methylphenyl)decyl) triphenylphosphonium and (10-(4,5-dimethoxy-2-methyl-3,6-dioxocyclohexa-1,4-dienyl)decyl) triphenylphosphonium] | Particular positive effects | 
Cl.NCCc1ccc(S(=O)(=O)F)cc1 [Pefabloc SC, 4-(2-aminoethyl) benzenesulfonyl fluoride hydrochloride] | higher signals than the control sample without additive | 
CC(C)(C)C(=O)Oc1ccc(S(=O)(=O)Nc2ccccc2C(=O)NCC(=O)O)cc1 [Sivelestat] | higher signals than the control sample without additive | 
